Measured values reported in patent US20200101068A1, “Heteroaryl Derivatives as PARP Inhibitors” (Lupin Limited, priority 2015, published 2020).

Target: T1, PARP1 (Homo sapiens, UniProt P09874)
T1 construct: purchased BPS Bioscience
Assay: PARP1 biochemical assay (BPS Bioscience kit, chemiluminescent)
Settings: histone-coated plate, biotinylated NAD+, 60 min at 25° C., luminescence; read-out: PARP 1 inhibition IC50
Experimental: Example 16: PARP1 Biochemical Assay
The assay was performed using BPS Bioscience kit. The 96-well strip plate was coated with 50 μl of histone mixture and incubated at 4° C. overnight. The next day, the wells were blocked by adding 100 μl of blocking buffer. The plate was washed and 25 μl of appropriate concentration of PARP1 (25-75 ng/well) was added in all of the Test and Positive control wells. In the Negative control wells, the enzyme was replaced with 25 μl of water. 5 μl each of 10× PARP assay buffer and activated DNA was added in all the wells (Test, Positive and Negative control wells). 10× concentration of the test compounds were prepared and 5 μl test compounds were added to the respective wells. The reaction volume was made up to 45 μl by adding water to all of the wells. 5 μl of 10× PARP assay mixture containing biotinilated NAD^+ was added in each well and the plate was incubated at ambient temperature (25° C.) for 60 min. After washing the plate 50 μl of Streptavidin-HRP was added in each well, the plate was incubated at RT for 30 min. The plate was washed and the luminescence was read in PHERAStar plate reader after adding 100 μl of chemiluminescent substrate.
PARP inhibition was calculated using the following formula:
% PARP inhibition=100−[(RLU test compound treated sample−RLU negative control)/(RLU Positive control−RLU negative control)×100]
IC50 values were calculated by plotting % inhibition against the respective concentrations of test compounds using GraphPad Prism 5.

T1 sequence (P09874 whole entry): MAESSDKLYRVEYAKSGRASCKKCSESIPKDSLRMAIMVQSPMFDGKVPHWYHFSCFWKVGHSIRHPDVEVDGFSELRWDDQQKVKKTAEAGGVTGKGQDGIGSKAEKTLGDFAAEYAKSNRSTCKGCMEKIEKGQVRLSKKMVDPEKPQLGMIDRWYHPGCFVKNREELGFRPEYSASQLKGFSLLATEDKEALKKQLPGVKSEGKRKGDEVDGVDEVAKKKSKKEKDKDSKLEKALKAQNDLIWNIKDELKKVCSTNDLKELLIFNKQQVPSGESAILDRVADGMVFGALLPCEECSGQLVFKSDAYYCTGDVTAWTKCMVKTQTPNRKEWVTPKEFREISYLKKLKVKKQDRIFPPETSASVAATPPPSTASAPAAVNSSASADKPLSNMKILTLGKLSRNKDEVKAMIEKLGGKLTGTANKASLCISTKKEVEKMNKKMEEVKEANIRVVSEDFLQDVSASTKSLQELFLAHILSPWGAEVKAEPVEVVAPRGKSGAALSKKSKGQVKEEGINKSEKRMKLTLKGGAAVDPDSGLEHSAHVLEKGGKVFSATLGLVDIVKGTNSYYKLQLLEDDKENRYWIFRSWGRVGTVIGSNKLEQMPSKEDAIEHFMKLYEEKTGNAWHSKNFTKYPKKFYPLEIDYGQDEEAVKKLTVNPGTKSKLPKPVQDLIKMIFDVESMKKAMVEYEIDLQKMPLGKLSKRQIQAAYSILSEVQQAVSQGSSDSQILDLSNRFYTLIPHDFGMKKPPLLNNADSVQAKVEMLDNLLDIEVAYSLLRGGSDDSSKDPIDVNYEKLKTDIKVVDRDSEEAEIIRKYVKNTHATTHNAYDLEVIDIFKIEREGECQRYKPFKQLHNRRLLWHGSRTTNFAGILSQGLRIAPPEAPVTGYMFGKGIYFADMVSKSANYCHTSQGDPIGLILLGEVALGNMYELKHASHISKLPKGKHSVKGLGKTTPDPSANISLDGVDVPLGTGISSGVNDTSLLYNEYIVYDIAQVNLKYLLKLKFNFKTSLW

Compound | IC50 [nM]
C[C@@H]1CN(c2ccc(C#N)cc2)CCN1[C@@H]1C=C(c2cc3ncccc3c(=O)[nH]2)CC1 (racemic) [Compound 15, 4-((R)-3-methyl-4-((S/R)-3-(5-oxo-5,6-dihydro-1,6-naphthyridin-7-yl)cyclopent-2-en-1-yl)piperazin-1-yl)benzonitrile] | 5.1 to 50
N#Cc1ccc(N2CCN([C@@H]3CC[C@H](c4cc5ncccc5c(=O)[nH]4)C3)CC2)cc1 (single isomer, unassigned) [Compound 11] | 0.5 to 5
N#Cc1ccc(N2CCN([C@@H]3CC[C@@H](c4cc5ncccc5c(=O)[nH]4)C3)CC2)cc1 (single isomer, unassigned) [Compound 12] | 5.1 to 50
C[C@@H]1CN(c2ccc(C#N)cc2)CCN1C1C=C(c2cc3ncccc3c(=O)[nH]2)CC1 (single isomer, unassigned) [Compound 14] | 0.5 to 5
N#Cc1ccc(N2C[C@@H]3C[C@H]2CN3C2C=C(c3cc4ncccc4c(=O)[nH]3)CC2)cc1 (single isomer, unassigned) [Compound 16] | 5.1 to 50
N#Cc1ccc(N2CCN([C@H]3C=C(c4cc5ncccc5c(=O)[nH]4)CC3)CC2)cc1 [Compound 1, (R)-4-(4-(3-(5-oxo-5,6-dihydro-1,6-naphthyridin-7-yl)cyclopent-2-en-1-yl)piperazin-1-yl)benzonitrile] | 0.5 to 5
N#Cc1ccc(N2CCN([C@H]3C=C(c4cc5ncc(F)cc5c(=O)[nH]4)CC3)CC2)cc1 [Compound 2, (R)-4-(4-(3-(3-fluoro-5-oxo-5,6-dihydro-1,6-naphthyridin-7-yl)cyclopent-2-en-1-yl)piperazin-1-yl)benzonitrile] | 0.5 to 5
Cc1ccccc1N1CCN([C@H]2C=C(c3cc4ncccc4c(=O)[nH]3)CC2)CC1 [Compound 3, (R)-7-(3-(4-(o-tolyl)piperazin-1-yl)cyclopent-1-en-1-yl)-1,6-naphthyridin-5(6H)-one] | 0.5 to 5
N#Cc1ccc(N2CCN([C@@H]3C=C(c4cc5ncccc5c(=O)[nH]4)CC3)CC2)cc1 [Compound 4, (S)-4-(4-(3-(5-oxo-5,6-dihydro-1,6-naphthyridin-7-yl)cyclopent-2-en-1-yl)piperazin-1-yl)benzonitrile] | 5.1 to 50
Cc1ccc2c(=O)[nH]c(C3=C[C@H](N4CCN(c5ccc(C#N)cc5)CC4)CC3)cc2n1 [Compound 6, (R)-4-(4-(3-(2-methyl-5-oxo-5,6-dihydro-1,6-naphthyridin-7-yl)cyclopent-2-en-1-yl)piperazin-1-yl)benzonitrile] | 0.5 to 5
N#Cc1ccc(N2CCN([C@H]3C=C(c4cc5ncc(N)cc5c(=O)[nH]4)CC3)CC2)cc1 [Compound 7, (R)-4-(4-(3-(3-amino-5-oxo-5,6-dihydro-1,6-naphthyridin-7-yl)cyclopent-2-en-1-yl)piperazin-1-yl)benzonitrile] | 0.5 to 5
N#Cc1ccc(N2CCN([C@H]3C=C(c4[nH]c(=O)c5cccnc5c4[N+](=O)[O-])CC3)CC2)cc1 [Compound 8, (R)-4-(4-(3-(8-nitro-5-oxo-5,6-dihydro-1,6-naphthyridin-7-yl)cyclopent-2-en-1-yl)piperazin-1-yl)benzonitrile] | 0.5 to 5
Cc1c(C2=C[C@H](N3CCN(c4ccc(C#N)cc4)CC3)CC2)[nH]c(=O)c2cccnc12 [Compound 9, (R)-4-(4-(3-(8-methyl-5-oxo-5,6-dihydro-1,6-naphthyridin-7-yl)cyclopent-2-en-1-yl)piperazin-1-yl)benzonitrile] | 0.5 to 5
Cc1c(C2=C[C@@H](N3CCN(c4ccc(C#N)cc4)CC3)CC2)[nH]c(=O)c2cccnc12 [Compound 10, (S)-4-(4-(3-(8-methyl-5-oxo-5,6-dihydro-1,6-naphthyridin-7-yl)cyclopent-2-en-1-yl)piperazin-1-yl)benzonitrile] | 0.5 to 5
N#Cc1ccc(N2CCN([C@H]3C=C(c4cc5ncccc5c(=O)[nH]4)CC3)CC2=O)cc1 [Compound 13, (R)-4-(2-oxo-4-(3-(5-oxo-5,6-dihydro-1,6-naphthyridin-7-yl)cyclopent-2-en-1-yl)piperazin-1-yl)benzonitrile] | 5.1 to 50
